According to US9061030B2, “sGC stimulators” (IRONWOOD PHARMACEUTICALS, INC., priority 2010, dated 2015):

Molecular target: T1, Human soluble guanylate cyclase enzyme (hsGC) (Homo sapiens, UniProt Q02108+Q02153)
T1 construct: purchased Enzo Inc. ALX-201-177
T1 sequence (Q02153 1-619): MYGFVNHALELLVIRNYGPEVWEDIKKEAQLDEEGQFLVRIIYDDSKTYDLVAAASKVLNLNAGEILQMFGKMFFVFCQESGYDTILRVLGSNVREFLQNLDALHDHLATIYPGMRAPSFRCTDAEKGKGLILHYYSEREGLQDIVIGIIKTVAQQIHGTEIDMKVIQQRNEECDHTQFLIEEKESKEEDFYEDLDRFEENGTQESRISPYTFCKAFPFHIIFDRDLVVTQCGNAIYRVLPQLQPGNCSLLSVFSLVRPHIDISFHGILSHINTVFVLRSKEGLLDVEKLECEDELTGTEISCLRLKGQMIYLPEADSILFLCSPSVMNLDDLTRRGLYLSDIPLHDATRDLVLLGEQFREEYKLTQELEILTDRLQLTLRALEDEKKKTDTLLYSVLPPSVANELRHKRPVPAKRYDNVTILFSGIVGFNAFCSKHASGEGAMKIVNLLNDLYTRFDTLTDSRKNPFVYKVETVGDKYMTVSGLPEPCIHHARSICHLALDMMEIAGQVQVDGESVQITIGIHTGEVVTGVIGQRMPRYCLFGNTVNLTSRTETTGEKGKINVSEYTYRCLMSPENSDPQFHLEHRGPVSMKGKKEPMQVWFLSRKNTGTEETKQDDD
T1 sequence (Q02108 1-690): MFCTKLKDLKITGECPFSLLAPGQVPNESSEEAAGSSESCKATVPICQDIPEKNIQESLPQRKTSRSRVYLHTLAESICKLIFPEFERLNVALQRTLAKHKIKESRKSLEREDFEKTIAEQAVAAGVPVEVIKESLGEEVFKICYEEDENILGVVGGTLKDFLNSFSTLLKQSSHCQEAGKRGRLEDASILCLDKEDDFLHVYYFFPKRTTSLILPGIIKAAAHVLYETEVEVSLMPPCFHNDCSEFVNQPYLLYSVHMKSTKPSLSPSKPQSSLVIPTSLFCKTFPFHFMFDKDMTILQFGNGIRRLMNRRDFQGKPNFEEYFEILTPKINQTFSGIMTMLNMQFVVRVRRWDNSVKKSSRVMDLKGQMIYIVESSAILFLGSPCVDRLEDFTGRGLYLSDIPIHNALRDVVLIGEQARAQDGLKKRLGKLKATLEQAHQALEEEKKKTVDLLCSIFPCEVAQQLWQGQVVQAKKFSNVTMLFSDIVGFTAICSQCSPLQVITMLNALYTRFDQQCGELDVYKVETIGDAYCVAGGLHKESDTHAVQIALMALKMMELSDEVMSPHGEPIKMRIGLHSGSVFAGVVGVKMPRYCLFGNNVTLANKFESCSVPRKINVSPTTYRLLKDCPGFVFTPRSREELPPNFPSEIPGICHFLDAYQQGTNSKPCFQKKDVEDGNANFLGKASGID
Experiment: Purified human sGC enzyme activity assay (with or without SNP)
Type: biochemical
Settings: for sGC Enzyme Activity Increase at 30 μM with SNP / sGC Enzyme Activity Increase at 30 μM without SNP: 30 μM compound
Method in brief: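 Purified human sGC (5 ng) incubated 30 min at 37° C with compound at 10 or 30 μM, 300 μM GTP, 2 mM MgCl2 and 1 mM IBMX at pH 8.0, with or without 1 μM SNP. cGMP formed was quantified against a standard curve. Results are given as fold-change in specific activity over DMSO (or DMSO+SNP) control.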

[1] = 1 μM SNP, specific activity vs DMSO and SNP
[2] = without SNP, specific activity vs DMSO control

Row | Structure (SMILES) | sGC Enzyme Activity Increase at 30 μM with SNP [1] | sGC Enzyme Activity Increase at 30 μM without SNP [2] | sGC Enzyme Activity Increase at 10 μM with SNP (10 μM compound, 1 μM SNP, specific activity vs DMSO and SNP) | sGC Enzyme Activity Increase at 10 μM without SNP (10 μM compound, without SNP, specific activity vs DMSO control)
1 | Fc1ccccc1Cn1nc(-c2ncccn2)nc1-c1cocn1 [Compound I-46] | C (C = 2 to <5 fold increase) | B (B = 1 to <2 fold increase) | – | –
2 | Fc1ccccc1Cn1nc(-c2ccccn2)nc1-c1ccccn1 [Compound I-1] | C (C = 2 to <5 fold increase) | C (C = 2 to <5 fold increase) | B (B = 1 to <2 fold increase) | B (B = 1 to <2 fold increase)
3 | Fc1ccccc1Cn1nc(-c2ccccn2)nc1-c1cscn1 [Compound I-4] | E (E = 10 to <20 fold increase) | C (C = 2 to <5 fold increase) | – | –
4 | COC(=O)N(C)c1c(N)nc(-c2nc(-c3nccs3)n(Cc3ccccc3F)n2)nc1N [Compound I-61, methyl 4,6-diamino-2-(1-(2-fluorobenzyl)-5-(thiazol-2-yl)-1H-1,2,4-triazol-3-yl)pyrimidin-5-yl(methyl)carbamate] | D (D = 5 to <10 fold increase) | C (C = 2 to <5 fold increase) | – | –
5 | Fc1ccccc1Cn1nc(-c2ccccn2)nc1-c1cocn1 [Compound I-12, 4-(1-(2-fluorobenzyl)-3-(pyridin-2-yl)-1H-1,2,4-triazol-5-yl)oxazole] | E (E = 10 to <20 fold increase) | C (C = 2 to <5 fold increase) | – | –
6 | Nc1ccnc(-c2nc(-c3nccs3)n(Cc3ccccc3F)n2)c1 [Compound I-44] | F (F = 20 to <50 fold increase) | D (D = 5 to <10 fold increase) | – | –
7 | Fc1ccccc1Cn1nc(-c2ncccn2)nc1-c1cscn1 [Compound I-3] | D (D = 5 to <10 fold increase) | B (B = 1 to <2 fold increase) | – | –
8 | Fc1ccccc1Cn1nc(-c2ncccn2)nc1-c1nccs1 [Compound I-30] | C (C = 2 to <5 fold increase) | B (B = 1 to <2 fold increase) | – | –
9 | Nc1ccnc(-c2nc(-c3cscn3)n(Cc3ccccc3F)n2)c1 [Compound I-53, 2-(1-(2-fluorobenzyl)-5-(thiazol-4-yl)-1H-1,2,4-triazol-3-yl)pyridin-4-amine] | F (F = 20 to <50 fold increase) | D (D = 5 to <10 fold increase) | – | –
10 | Fc1ccccc1Cn1nc(-c2ccccn2)nc1-n1cncn1 [Compound I-50, 2′-(2-fluorobenzyl)-5′-(pyridin-2-yl)-2′H-1,3′-bi(1′,2′,4-triazole)] | C (C = 2 to <5 fold increase) | B (B = 1 to <2 fold increase) | – | –
11 | Fc1ccccc1Cn1nc(-c2ccccn2)nc1-c1nccs1 [Compound I-25] | E (E = 10 to <20 fold increase) | D (D = 5 to <10 fold increase) | – | –
12 | Fc1ccccc1Cn1nc(-c2nccs2)nc1-c1cscn1 [Compound I-41] | E (E = 10 to <20 fold increase) | C (C = 2 to <5 fold increase) | – | –
13 | Fc1ccccc1Cn1nc(-c2ccccn2)nc1-c1ncco1 [Compound I-6] | D (D = 5 to <10 fold increase) | D (D = 5 to <10 fold increase) | – | –
14 | Nc1ccnc(-c2nc(-c3nccs3)n(Cc3ccccc3F)n2)n1 [Compound I-48, 2-(1-(2-fluorobenzyl)-5-(thiazol-2-yl)-1H-1,2,4-triazol-3-yl)pyrimidin-4-amine] | D (D = 5 to <10 fold increase) | C (C = 2 to <5 fold increase) | – | –
15 | Fc1ccc(-c2nc(-c3nccs3)n(Cc3ccccc3F)n2)nc1 [Compound I-38] | E (E = 10 to <20 fold increase) | C (C = 2 to <5 fold increase) | – | –
16 | Fc1ccccc1Cn1nc(-c2cscn2)nc1-c1nccs1 [Compound I-40] | D (D = 5 to <10 fold increase) | B (B = 1 to <2 fold increase) | – | –
